Data as given in US9012470B2 (Dart NeuroScience (Cayman) Ltd., priority 2010, dated 2015).
Counter-ions that a name gives are not always drawn.

Key:
[1] = tested on: benzodiazepine site of GABAA; assay: Binding assay, benzodiazepine site of GABAA (binding assay 1: rat brain, (3H)-flunitrazepam; binding assay 2: bovine hippocampal membranes, [3H]-RY80); conditions: radioligand binding; for % Inhibition at 0.1 μM: 0.1 μM test compound; for % Inhibition at 10 μM: 10 μM test compound
Method in brief: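 Assay 1: rat whole-brain (minus cerebellum) membranes in Na–K phosphate pH 7.4, 1 nM (3H)-flunitrazepam, 60 min at 25° C., ± 30 μM GABA; nonspecific with 10 μM diazepam. Assay 2: bovine hippocampal membranes, 0.8 nM [3H]-RY80 in 50 mM Tris-Citrate pH 7.8/200 mM NaCl, 60 min at 0-4° C.; nonspecific with 0.5 μM L-655,708. Filtration read-out.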

GABAA receptors = assay: Electrophysiology assay, two-electrode voltage clamp in Xenopus oocytes expressing GABAA receptors; assay type: cell-based; conditions: GABA EC10, screening concentration of 10 μM, subunit combination not stated
Description: mRNA was prepared from lyophilized plasmid pellets containing cDNA inserts encoding the specific GABAA receptor subunit. cDNAs encoding the α2, α3, and γ3 subunits were subcloned into pBluescript, SK^−. cDNAs encoding the α1 and α5 subunits were subcloned into prC while cDNA encoding the β2 subunit was subcloned into pcDNA1. The cDNA construct encoding the γ2s subunit is in the pGH19 expression construct. Overnight cultures of transformed DH5a bacterial cells were performed to grow sufficient quantities for maxiprep isolation of the plasmid cDNA. The resulting plasmid cDNA was linearized by digestion with an appropriate restriction enzyme that cleaves distal to the cDNA insert (XbaI for α1,2, β2, and γ3 or NotI for α3,5 and γ2, respectively). Following digestion, plasmid cDNA was treated with proteinase K and extracted with phenol/chloroform/isoamyl alcohol, followed by ethanol precipitation. cDNA quality was assessed by agarose-gel electrophoresis (1.5% agarose gel). Samples were stored at −20° C. until use. In vitro transcription was performed with T7 RNA polymerase. mRNA was then stored at −80° C. until use. Plasmids were linearized with appropriate restriction enzymes before in vitro transcription using the Message Machine kit (Ambion, Austin, Tex.).
GABAA Receptor Expression in Xenopus oocytes.
GABAA receptor expression in Xenopus oocytes: Following 45 min of 0.15% Tricaine anesthesia, an ovarian section containing the follicular oocytes was removed from the frog through a lateral abdominal incision. Oocytes were immediately placed in a calcium-free solution (NaCl 96 mM, MgCl2 1 mM, KCl 2 mM, Hepes 50 mM, pyruvate 2.5 mM, gentamycin 100 μg/mL, penicillin-streptomycin 50 U/mL, pH 7.4). Following 1.5-2 hour incubation in 0.2% collagenase (type II, Sigma Chemical Co., St. Louis, Mo.) at room temperature, individual Dumont stage V and VI oocytes were transferred to an incubator and maintained overnight in Barth's solution (NaCl 84 mM, NaHCO3 2.4 mM, MgSO4 0.82 mM, KCl 1 mM, Ca(NO3)2 0.33 mM, CaCl2 0.41 mM, Tris/HCl 7.5 mM, pyruvate 2.5 mM, gentamycin 50 μg/mL, penicillin-streptomycin, 100 units/mL, pH 7.4) at 18-20° C. and used for experiments 1-5 days post-injection. Oocytes were injected solution using an electronic microinjector (Drummond, Broomall, Pa.) with 50 nL of RNA containing 0.3-0.5 ng of each subunit RNA in a 1:1:1 ratio. The injected oocytes were used for experiments after 1-5 days of incubation in Barth's solution at 18-20° C.
Measurements of ion currents from oocytes expressing GABAA receptors were performed using a Warner two-electrode voltage-clamp amplifier (Warner Instruments, Inc., Foster City, Calif.) (Park-Chung, M., et al. (1999) Brain Res. 830: 72-87 incorporated herein in its entirety). Microelectrodes were fabricated from borosilicate glass capillaries with a programmed pipette puller (Sutter Instrument Co., Calif.). Microelectrode resistance was 1-3 MΩ when filled with 3 M KCl. The oocyte recording chamber was continuously perfused with Ringer solution. Oocytes were clamped at a holding potential of −70 mV during data acquisition. The membrane current was filtered at 10 Hz and sampled at 100 Hz. Compounds were applied by a gravity-driven external perfusion system. The working volume of the recording chamber was 30 μL and the rate of the perfusion was approximately 50 μL/sec. Compound application was 10-20 sec followed by a 90 sec wash. Data acquisition and external perfusion was computer controlled by custom-developed software. All experiments were performed at room temperature (22-24° C.). Dose-response data from each oocyte were fitted to the Hill equation by non-linear regression using the equation: IGABA=Emax/(1+(EC50/c)^n^H)
Emax is the maximum response, EC50 is the concentration producing 50% of the maximal response, nH is the Hill coefficient and c is the concentration of agonist. […]

Compound	% Inhibition at 0.1 μM [1]	% Inhibition at 10 μM [1]	EP Modulation (GABAA receptors)
CCNC(=O)n1ncc2c3nn(-c4ccc(Cl)cc4)c(=O)c-3c[nH]c21 [Compound 6o]	B (B indicates % inhibition <80% and >20%)	A (A indicates % inhibition >80%)	E (E indicates negative modulation <20%)
CCNC(=O)n1ncc2c3nn(-c4ccc(Br)cc4)c(=O)c-3c[nH]c21 [Compound 6w, 2-(4-bromophenyl)-N-ethyl-3-oxo-2,3-dihydrodipyrazolo[3,4-b:3′,4′-d]pyridine-6(5H)-carboxamide.TFA]		A (A indicates % inhibition >80%)	E (E indicates negative modulation <20%)
CN(C)CCNC(=O)n1ncc2c3nn(-c4ccccc4)c(=O)c-3c[nH]c21 [Compound 7a, N-(2-(dimethylamino)ethyl)-3-oxo-2-phenyl-2,3-dihydrodipyrazolo[3,4-b:3′,4′-d]pyridine-6(5H)-carboxamide]	C (C indicates % inhibition <20%)	B (B indicates % inhibition <80% and >20%)	E (E indicates negative modulation <20%)
O=C(NCC(F)(F)F)n1ncc2c3nn(-c4ccccc4)c(=O)c-3c[nH]c21 [Compound 7b, 3-oxo-2-phenyl-N-(2,2,2-trifluoroethyl)-2,3-dihydrodipyrazolo[3,4-b:3′,4′-d]pyridine-6(5H)-carboxamide]	B (B indicates % inhibition <80% and >20%)	A (A indicates % inhibition >80%)	D (D indicates negative modulation >20%)
CC(C)N1CCN(C(=O)n2ncc3c4nn(-c5ccccc5)c(=O)c-4c[nH]c32)CC1 [Compound 7d, 6-(4-isopropylpiperazine-1-carbonyl)-2-phenyl-5,6-dihydrodipyrazolo[3,4-b:3′,4′-d]pyridin-3(2H)-one]	C (C indicates % inhibition <20%)	C (C indicates % inhibition <20%)	Positive
CCNC(=O)n1cc2[nH]cc3c(=O)n(-c4ccccc4)nc-3c2c1 [Compound 13b, N-Ethyl-3-oxo-2-phenyl-2,3-dihydropyrazolo[3,4-d]pyrrolo[3,4-b]pyridine-7(5H)-carboxamide]	A (A indicates % inhibition >80%)	A (A indicates % inhibition >80%)	D (D indicates negative modulation >20%)
CCNC(=O)n1cc2[nH]cc3c(=O)n(-c4ccccc4F)nc-3c2c1 [Compound 13d, N-Ethyl-2-(2-fluorophenyl)-3-oxo-2,3-dihydropyrazolo[3,4-d]pyrrolo[3,4-b]pyridine-7(5H)-carboxamide]	B (B indicates % inhibition <80% and >20%)	A (A indicates % inhibition >80%)	D (D indicates negative modulation >20%)
CCCCNC(=O)n1cc2[nH]cc3c(=O)n(-c4ccccc4F)nc-3c2c1 [Compound 13e, N-butyl-2-(2-fluorophenyl)-3-oxo-2,3-dihydropyrazolo[3,4-d]pyrrolo[3,4-b]pyridine-7(5H)-carboxamide]	B (B indicates % inhibition <80% and >20%)	A (A indicates % inhibition >80%)	E (E indicates negative modulation <20%)
CCNC(=O)n1cc2[nH]cc3c(=O)n(-c4ccc(F)cc4)nc-3c2c1 [Compound 13f, N-Ethyl-2-(4-fluorophenyl)-3-oxo-2,3-dihydropyrazolo[3,4-d]pyrrolo[3,4-b]pyridine-7(5H)-carboxamide]	A (A indicates % inhibition >80%)	A (A indicates % inhibition >80%)	D (D indicates negative modulation >20%)
CCNC(=O)n1cc2[nH]cc3c(=O)n(-c4ccc(F)cc4F)nc-3c2c1 [Compound 13g, 2-(2,4-Difluorophenyl)-N-ethyl-3-oxo-2,3-dihydropyrazolo[3,4-d]pyrrolo[3,4-b]pyridine-7(5H)-carboxamide]	B (B indicates % inhibition <80% and >20%)	A (A indicates % inhibition >80%)	D (D indicates negative modulation >20%)
CCCCNC(=O)n1cc2[nH]cc3c(=O)n(-c4ccccc4)nc-3c2c1 [Compound 13i, N-Butyl-3-oxo-2-phenyl-2,3-dihydropyrazolo[3,4-d]pyrrolo[3,4-b]pyridine-7(5H)-carboxamide]	A (A indicates % inhibition >80%)	A (A indicates % inhibition >80%)	E (E indicates negative modulation <20%)
CCNC(=O)n1cc2[nH]cc3c(=O)n(-c4ccccc4)nc-3c2n1 [Compound 21a]	B (B indicates % inhibition <80% and >20%)	C (C indicates % inhibition <20%)	D (D indicates negative modulation >20%)

Now from value to molecule, other results behind:

% Inhibition at 0.1 μM [1]	% Inhibition at 10 μM [1]	Compound	EP Modulation (GABAA receptors)
C (C indicates % inhibition <20%)	A (A indicates % inhibition >80%)	CCNC(=O)n1ncc2c3nn(-c4ccccn4)c(=O)c-3c[nH]c21 [Compound 6m, N-ethyl-3-oxo-2-(pyridin-2-yl)-2,3-dihydrodipyrazolo[3,4-b:3′,4′-d]pyridine-6(5H)-carboxamide]	D (D indicates negative modulation >20%)
C (C indicates % inhibition <20%)	C (C indicates % inhibition <20%)	CC(C)NC(=O)n1ncc2c3nn(-c4ccccn4)c(=O)c-3c[nH]c21 [Compound 6n, N-isopropyl-3-oxo-2-(pyridin-2-yl)-2,3-dihydrodipyrazolo[3,4-b:3′,4′-d]pyridine-6(5H)-carboxamide]	E (E indicates negative modulation <20%)
	A (A indicates % inhibition >80%)	CCNC(=O)n1ncc2c3nn(-c4ccsc4)c(=O)c-3c[nH]c21 [Compound 6u, N-ethyl-3-oxo-2-(thiophen-3-yl)-2,3-dihydrodipyrazolo[3,4-b:3′,4′-d]pyridine-6(5H)-carboxamide]	D (D indicates negative modulation >20%)
	A (A indicates % inhibition >80%)	CCNC(=O)n1ncc2c3nn(-c4ccc(C(C)C)cc4)c(=O)c-3c[nH]c21 [Compound 6z, N-ethyl-2-(4-isopropylphenyl)-3-oxo-2,3-dihydrodipyrazolo[3,4-b:3′,4′-d]pyridine-6(5H)-carboxamide. TFA]	E (E indicates negative modulation <20%)
A (A indicates % inhibition >80%)	A (A indicates % inhibition >80%)	CNC(=O)n1cc2[nH]cc3c(=O)n(-c4ccccc4)nc-3c2c1 [Compound 13a, N-Methyl-3-oxo-2-phenyl-2,3-dihydropyrazolo[3,4-d]pyrrolo[3,4-b]pyridine-7(5H)-carboxamide]	D (D indicates negative modulation >20%)
A (A indicates % inhibition >80%)	A (A indicates % inhibition >80%)	CCCNC(=O)n1cc2[nH]cc3c(=O)n(-c4ccccc4)nc-3c2c1 [Compound 13c, 3-Oxo-2-phenyl-N-propyl-2,3-dihydropyrazolo[3,4-d]pyrrolo[3,4-b]pyridine-7(5H)-carboxamide]	D (D indicates negative modulation >20%)
